This test concerns the target T1, cytochrome bc1 complex (cytochrome b, cyt b) (Plasmodium falciparum, UniProt Q02768).
T1 construct: gene MT-CYB; native bc1 complex in mitochondria-enriched preparations from D10 WT and ΔPfNDH2 parasites; with other subunits of the bc1 complex (Complex III)
T1 sequence (Q02768 1-376): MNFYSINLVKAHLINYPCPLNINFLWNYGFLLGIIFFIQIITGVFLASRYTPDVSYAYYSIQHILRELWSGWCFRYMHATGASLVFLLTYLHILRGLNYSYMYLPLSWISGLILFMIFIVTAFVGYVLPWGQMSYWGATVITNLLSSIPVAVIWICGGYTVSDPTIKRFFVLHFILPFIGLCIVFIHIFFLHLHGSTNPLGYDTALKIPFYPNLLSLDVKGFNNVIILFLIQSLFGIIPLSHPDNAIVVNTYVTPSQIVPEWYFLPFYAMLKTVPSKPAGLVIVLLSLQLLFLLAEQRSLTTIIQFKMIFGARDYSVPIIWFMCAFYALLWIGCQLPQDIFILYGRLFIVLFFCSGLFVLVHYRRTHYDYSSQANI
As to the kind of experiment: ubiquinol-cytochrome c reductase assay in isolated parasite mitochondria ([…] nm), dose-dependent inhibition in WT and ΔPfNDH2. In kind it is cell-based.

On to `CCCCCCCCCCCCc1cc(=O)c2ccccc2n1O` [HDQ, 1-hydroxy-2-dodecyl-4(1H) quinolone], for which the “ubiquinol-cytochrome c reductase assay in isolated parasite mitochondria (550 nm)” value was “HDQ and CK-2-68 inhibited the ubiquinol-cytochrome c reductase activity in the mitochondria of ΔPfNDH2 and WT”.

Values taken from article PMC6456166, “Mitochondrial type II NADH dehydrogenase of Plasmodium falciparum (PfNDH2) is dispensable in the asexual blood stages” (PLoS ONE, 2019).
